Experimental data from the NIST ThermoML archive (doi:10.1007/s10765-012-1373-z).
± gives the expanded uncertainty stated by the source.

Conditions: Liquid; for mass density: Buoyancy - hydrostatic balance; for viscosity: Falling or rolling sphere viscometry

CCCCCCC [heptane]
Conditions | mass density [kg/m3] | viscosity [mPa·s]
362.98 K, 245160 kPa | 769.76 ± 4.6 | 0.9926 ± 0.04
363.07 K, 24510 kPa | 654.31 ± 3.9 | 0.2937 ± 0.012
391.93 K, 147100 kPa | 717.73 ± 4.3 | 0.531 ± 0.022
392 K, 196130 kPa | 739.92 ± 4.4 | 0.6621 ± 0.027
392 K, 245160 kPa | 759.27 ± 4.6 | 0.8047 ± 0.033
392.04 K, 98060 kPa | 696.22 ± 4.2 | 0.4119 ± 0.017
393.01 K, 24510 kPa | 634.69 ± 3.8 | 0.2366 ± 0.0096
393.14 K, 49030 kPa | 657.93 ± 4 | 0.2965 ± 0.012
422.17 K, 196130 kPa | 729 ± 4.4 | 0.5591 ± 0.023
422.24 K, 98060 kPa | 679.62 ± 4.1 | 0.3479 ± 0.014
422.26 K, 147100 kPa | 704.75 ± 4.2 | 0.4464 ± 0.018
422.58 K, 24510 kPa | 611.28 ± 3.7 | 0.1951 ± 0.0079
422.6 K, 49030 kPa | 638.89 ± 3.8 | 0.2476 ± 0.01
423.04 K, 245160 kPa | 748.46 ± 4.5 | 0.6699 ± 0.027
452.91 K, 245160 kPa | 734.45 ± 4.4 | 0.577 ± 0.024
453.04 K, 196130 kPa | 716.18 ± 4.3 | 0.4784 ± 0.019
453.1 K, 147100 kPa | 689.71 ± 4.1 | 0.3883 ± 0.016
453.16 K, 98060 kPa | 666.38 ± 4 | 0.3007 ± 0.012
453.24 K, 49030 kPa | 621.56 ± 3.7 | 0.2134 ± 0.0087
453.4 K, 24510 kPa | 589.05 ± 3.5 | 0.1668 ± 0.0068
470.1 K, 49030 kPa | 611.78 ± 3.7 | 0.2021 ± 0.0082
470.19 K, 24510 kPa | 574.55 ± 3.5 | 0.1568 ± 0.0064
470.19 K, 98060 kPa | 658.7 ± 4 | 0.2858 ± 0.012
470.19 K, 147100 kPa | 685.13 ± 4.1 | 0.3672 ± 0.015
470.57 K, 196130 kPa | 709.79 ± 4.3 | 0.4549 ± 0.018
470.61 K, 245160 kPa | 729.17 ± 4.4 | 0.5475 ± 0.022
